Counter-ions that a name gives are not always drawn.
Target: T1, β-adrenergic receptors (Cavia porcellus, UniProt H0W3H1)
T1 construct: The ventricles and adipose tissue were carefully cut away to leave the atria as an intact pair; from tissue; host or cells: isolated guinea pig atria (intact pair)
Assay: Inhibition of isoproterenol-induced enhancement of the rate of contraction of guinea pig atrial pairs in vitro (KB as β-antagonist)
Assay type: cell-based
Conditions: guinea pig atria, versus isoproterenol, KB from dose ratio of isoproterenol EC50, 37° C., read-out: receptor dissociation constant (KB) as a β-antagonist
Description: The β-blocking activity of the compounds of structure (I) can be assessed in a test for inhibition of isoproterenol-induced enhancement of the rate of contraction of guinea pig atrial pairs in vitro.
Inhibition of isoproterenol-induced enhancement of constricted guinea pig atria
A guinea pig (500-700 g) was injected with sodium pentobarbital (50 mg/kg, ip). When anesthetized, the heart was removed and placed in cold (5°-10° C.), oxygenated Krebs-Hensleit solution. The ventricles and adipose tissue were carefully cut away to leave the atria as an intact pair. A thread was tied to the apex of each atrium and the tissue suspended in a 50 ml tissue bath, attached to a force-displacement transducer. A diastolic tension of 1 g was maintained. Atrial contraction rate was measured using biotachometer, driven by the transducer amplifier.
A 30 minute stabilization period was allowed before obtaining the first dose response curve, during which time the tissue was washed several times with fresh solution. A concentration-response curve to isoprotererol was then determined, increasing agonist concentrations when the rate response to the previous dose had stabilized. After this determination, any β-antagonist activity of the test compound was measured via a concentration-response curve. […]

T1 sequence (H0W3H1 1-470): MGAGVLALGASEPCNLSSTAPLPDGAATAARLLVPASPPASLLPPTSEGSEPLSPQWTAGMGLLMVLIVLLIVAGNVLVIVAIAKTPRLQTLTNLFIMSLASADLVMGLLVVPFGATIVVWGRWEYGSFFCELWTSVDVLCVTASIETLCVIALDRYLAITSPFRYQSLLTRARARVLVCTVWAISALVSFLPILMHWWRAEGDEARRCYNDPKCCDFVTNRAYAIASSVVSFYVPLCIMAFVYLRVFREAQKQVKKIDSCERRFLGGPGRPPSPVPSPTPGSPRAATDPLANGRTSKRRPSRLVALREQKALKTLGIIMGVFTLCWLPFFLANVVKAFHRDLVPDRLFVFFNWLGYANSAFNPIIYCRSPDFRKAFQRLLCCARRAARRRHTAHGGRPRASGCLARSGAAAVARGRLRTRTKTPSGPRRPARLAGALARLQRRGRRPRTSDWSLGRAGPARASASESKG

SMILES: COc1cc(CC2NCCc3cc(Cl)c(Cl)cc32)cc(OC)c1OC (stereo not shown) [Example 1, 6,7-dichloro-1-(3,4,5-trimethoxybenzyl)-1,2,3,4-tetrahydroisoquinoline fumarate]
- Kb: 67 nM
